Drawing on PubChem BioAssay AID179 (DTP/NCI, 2004), this text covers EC50, IC50 and outcome for 53 molecules.

The source made the active and inactive calls.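 Rule for the calls: active = compounds giving half or more protection of infected cells from virus-caused growth loss, again on retest; inactive = the rest.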

In this assay the test system is CEM cells HIV-1 protection, formazan growth assay. The experiment in a line: NCI AIDS Antiviral Assay. As to conditions: for IC50: measured here: growth of uninfected CEM cells. The method, boiled down: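 Human CEM cells, uninfected and HIV-1-infected, received five drug concentrations, and growth was read by soluble formazan assay. Compounds giving at least 50% protection were retested; reproducible 100% protection defined confirmed active.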

One may read the EC50 as the concentration needed to bring the measured effect to its halfway point. By IC50 is commonly meant the concentration that gives 50% inhibition.

For `Cc1ccc(NC(=O)CC(=O)N2N=C(N3CCCCC3)CC2c2ccccc2)cc1` (centres undefined), the EC50 was more than 200 µM and the IC50 was more than 200 µM.
As for `CCOC(=O)C(Cc1cn(C(C)=O)c2ccccc12)P(=O)(OCC)OCC` (centres undefined), the EC50 is more than 200 µM and the IC50 was more than 200 µM.
With `NCCCC[C@H](NC(=O)[C@H](CS)NC(=O)[C@@H](N)Cc1cnc[nH]1)C(=O)N[C@H](Cc1ccccc1)C(=O)N[C@@H](Cc1c[nH]c2ccccc12)C(=O)N[C@@H](Cc1c[nH]c2ccccc12)C(N)=O`, the EC50 is more than 200 µM and the IC50 was more than 200 µM.
For the molecule `Cc1nc2ccccc2n1COC(Cn1ccnc1)c1ccc(Cl)cc1Cl` (centres undefined), the EC50 is more than 200 µM and the IC50 came out at 135 µM.
As to `CN1CCc2cc3c4cc2C1Cc1ccc(cc1)Oc1cc(ccc1O)CC1c2c(cc(O)c(c2O4)O3)CCN1C` (centres undefined), the outcome was inactive.
With `O=[N+]([O-])c1cccc2nc3ccccc3c(NCCNCCO)c12`, the EC50 was more than 2 µM and the IC50 turned out to be 0.0316 µM.
With `CN(C)C1C(=O)C(C(=O)NCNC2C(=O)N3C2SC(C)(C)C3C(=O)O)=C(O)C2(O)C(=O)C3=C(O)c4c(O)cccc4C(C)(O)C3CC12` (centres undefined), the EC50 was more than 269 µM and the IC50 amounted to 251 µM.
With `CCOC(=O)C(C(=O)OCC)=C1SC(=Nc2ccccc2)C(=Nc2ccccc2)N1c1ccccc1`, the EC50 is more than 200 µM and the IC50 is 70.8 µM.
The matching figures for `O=C(NC1C2CC3CC(C2)CC1C3)/C(Cl)=C1/Sc2ccccc2NC1=O` (centres undefined): more than 5.13 µM and more than 5.13 µM.
As for `CCOc1ccc(NC(=S)NC=C(C(N)=O)C(N)=O)cc1`, the EC50 was more than 200 µM and the IC50 is more than 200 µM.
As for `O=[N+]([O-])c1cccnc1SSc1ncccc1[N+](=O)[O-]`, the EC50 is more than 200 µM and the IC50 turned out to be 97.7 µM.
As to `NC(=O)Nc1ccc(S(=O)(=O)c2ccc(N)cc2)cc1`, the EC50 was more than 200 µM and the IC50 was more than 200 µM.
For `O=C1CCC2(c3ccc(Cl)cc3)Nc3ccccc3N12` (centres undefined), the outcome was inactive.
Consider `CN(CCC#N)c1ccc(/C=C(\C#N)c2ccc(Br)cc2)cc1`, for which the EC50 was more than 200 µM and the IC50 turned out to be 4.57 µM.
The like results for `O=P1(Nc2ccccc2)NCCCO1` (centres undefined) were, in that order, more than 200 µM and more than 200 µM.
The like results for `CCOC(=O)C(C)(C(C)=O)c1nc(=S)[nH]c(=S)[nH]1` (centres undefined) were, in that order, more than 200 µM and 95.5 µM.
The like results for `O=C(/C(=C/c1cccc(Cl)c1)c1ccccc1)c1ccccc1` were, in that order, more than 8.51 µM and more than 8.51 µM.
With `Cc1ccc(-c2n[nH]c(=O)n2NC(=O)c2ccccc2C(=O)O)cc1`, the outcome was inactive.
With `Nc1nc(N)c2nc(-c3ccco3)cnc2n1`, the outcome was inactive.
Regarding `CCC1=CCN(c2ccccn2)OC1c1ccc(OC)cc1` (centres undefined), the EC50 is more than 63.1 µM and the IC50 is 60.3 µM.
For `COc1cc(C(=O)[O][Sn]([c]2ccccc2)([c]2ccccc2)[c]2ccccc2)cc(OC)c1OC`, the EC50 was more than 200 µM and the IC50 amounted to 0.0631 µM.
The matching figures for `N#CC(c1ccc(Cl)cc1)c1cccc(Cl)n1` (centres undefined): more than 70.8 µM and more than 70.8 µM.
Regarding `COc1ccc(OC)c2c(C(=O)O)c(Cc3ccccc3)ccc12`, the outcome was inactive.
In the case of `Cc1c(NC(=O)C(C)(C)Br)c(=O)oc2c(C)c3occc(=O)c3cc12`, the EC50 is more than 16.6 µM and the IC50 was more than 16.6 µM.
Regarding `CCCC(=N\N=C(N)N)/C(CCC)=N/N=C(N)N`, the EC50 is more than 186 µM and the IC50 is more than 186 µM.
Take `Nc1nc(N)c(N=O)c(Nc2ccccc2)n1`: the EC50 is more than 200 µM and the IC50 was 33.9 µM.
The matching figures for `C/C=C1\CN(C(=O)OC(C)(C)C)C1C(=O)OC(C)(C)C` (centres undefined): more than 200 µM and 85.1 µM.
The like results for `O=C1NC(=O)C(=Cc2ccc([N+](=O)[O-])cc2)C(=O)N1` were, in that order, more than 138 µM and more than 138 µM.
For `O=C1c2c(c3c4ccccc4n4c3c3c2c2ccccc2n3C/C=C\C4)C(=O)N1Cc1ccccc1`, the result was inactive.
As for `NC(=S)N/N=C/c1c(O)c2cc(Cl)ccc2[nH]c1=O`, the EC50 is more than 200 µM and the IC50 was found to be 93.3 µM.
For `O=C(O)COc1ccc(C(=O)/C(SS/C(C(=O)c2ccc(OCC(=O)O)c(Cl)c2Cl)=C2\C=C(c3ccc(Cl)cc3)SS2)=C2/C=C(c3ccc(Cl)cc3)SS2)c(Cl)c1Cl`, the outcome was inactive.
`CC(C)(C)/C(O)=C\c1nc2cc(F)c(F)cc2[nH]c1=O`: the EC50 is more than 200 µM and the IC50 came out at 182 µM.
Regarding `CC1=NN(C2=NS(=O)(=O)c3ccccc3N2C)C(=O)C1`, the EC50 was more than 123 µM and the IC50 is more than 123 µM.
Regarding `CCOC(=O)c1ccc(-n2cnc(-c3ccc([N+](=O)[O-])cc3)c2)cc1`, the EC50 was 95.5 µM and the IC50 was more than 200 µM.
The matching figures for `NCCCNCCSP(=O)(O)O`: more than 1150 µM and 257 µM.
Turning to `C[C@@H]1C[C@H]2[C@@H]3C[C@H](F)C4=CC(=O)C=C[C@]4(C)[C@@]3(F)[C@@H](O)C[C@]2(C)C1C(=O)COC(=O)c1cccc2c(=O)c3ccccc3[nH]c12` (some centres undefined), the EC50 was more than 100 µM and the IC50 is 2 µM.
The matching figures for `CC(C)C1=CC2=CC(=O)C3C(C)(C)CCCC3(C)C2=C(O)C1=O` (centres undefined): more than 20 µM and 4.07 µM.
Take `COc1ccc(C2(O)CCCCC2)cc1`: the EC50 is more than 66.1 µM and the IC50 was more than 66.1 µM.
As for `COc1ccc2c(c1)C(N)=C(c1ccccc1)C2=O`, the EC50 was more than 200 µM and the IC50 stood at 75.9 µM.
As to `CC12CCC(C=C1N1CCCCC1)C(C)(C)O2` (centres undefined), the EC50 is more than 1070 µM and the IC50 was more than 1070 µM.
`O=C1CC(CC(O)C2CCCC2O)CC(=O)N1` (centres undefined): the EC50 was more than 200 µM and the IC50 is more than 200 µM.
On to `CCOC(=O)Nc1nc2c([N+](=O)[O-])c(Br)n(C)c2s1`, for which the outcome was inactive.
As to `O=C(Nc1ccccc1)c1cc2ccc(O)c(O)c2cn1`, the EC50 is more than 158 µM and the IC50 came out at 8.32 µM.
The matching figures for `C1=C[C@@H]2c3ccc4cnccc4c3NC[C@@H]2C1`: more than 589 µM and 36.3 µM.
Take `O=C(/C=C/c1cccs1)c1ccc(Cl)cc1`: the result was inactive.
Regarding `COc1cc2c(ccc3c4cc(OC)c(OC)cc4c[n+](C)c23)cc1O`, the EC50 was more than 324 µM and the IC50 amounted to 1.48 µM.
The matching figures for `C=CCC1NCCC2=C1C(S(=O)(=O)c1ccc(C)cc1)c1ccccc12` (centres undefined): more than 200 µM and 10.5 µM.
For `O=C(C(=O)C(=O)C(=O)C1C(=O)c2ccccc2C1=O)C(=O)C(=O)C1C(=O)c2ccccc2C1=O`, the outcome was inactive.
Consider `COC(=O)CC(NC(=O)OCc1ccccc1)C(C(=O)OCc1ccccc1)C1(C)OCCO1` (centres undefined), for which the EC50 was more than 50.1 µM and the IC50 amounted to 34.7 µM.
As to `CC(=O)N1CN2C(=O)CCC2c2cc(C)ccc21` (centres undefined), the outcome was inactive.
For the molecule `O=NN(CCCl)C(=O)NCCCl`, the EC50 was more than 1150 µM and the IC50 was more than 1150 µM.
Consider `COC(=O)CC(C(C(=O)OC)C(=O)OC)N1C(=O)OCC1c1ccccc1` (centres undefined), for which the EC50 was more than 135 µM and the IC50 was more than 135 µM.
Take `O=C1C=CC(=O)c2c(O)c(CO)c(CO)c(O)c21`: the outcome was inactive.
